Measured values taken from publication PMC10140010 (Investigational New Drugs, 2023).
Where “and” joins values, the source holds several entries; their conditions need not be identical. Identical values can stand only once.

Tests used:
MAP4K4 = MAP4K4 (Homo sapiens, UniProt O95819); experiment: Z'-LYTE kinase selectivity; format: biochemical
JAK2 = JAK2 (Homo sapiens, UniProt O60674); experiment: Z'-LYTE kinase selectivity; format: biochemical
[1] = system: NIH-3T3 (CD74-ROS1) cells; experiment: Cell proliferation (CellTiter-Glo); format: cell-based; conditions: Mus musculus, NIH3T3
Experimental: (§1) Cell proliferation assay was performed using methods reported in the previous article. Cell proliferation was measured using the CellTiter-Glo® (CTG) Luminescent Cell Viability Assay (Promega, WI, USA). Cells were seeded in 96-well plates at 15,000 cells per well in detection medium containing 0.5% fetal bovine serum and placed in an incubator at 37℃ and 5% CO2 overnight. On the following day, iruplinalkib was serially diluted with DMSO, further diluted in assay medium, and added to the designated wells for serial dilution of iruplinalkib to the target gradient concentration.

[2] = system: NCI-H1975 (EGFR^L858R/T790M) cells; experiment: Cell proliferation (CellTiter-Glo); format: cell-based; conditions: Homo sapiens, NCI-H1975
Experimental: as §1

[3] = system: HCC-78 (SLC34A2-ROS1) cells; experiment: Cell proliferation (CellTiter-Glo); format: cell-based; conditions: Homo sapiens, HCC78
Experimental: as §1

Ba/F3 cells = experiment: Cell proliferation (CellTiter-Glo); format: cell-based; conditions: Mus musculus, BaF3
Experimental: as §1

[4] = system: Ba/F3 (SLC34A2-ROS1) cells; experiment: Cell proliferation (CellTiter-Glo); format: cell-based; conditions: Mus musculus, BaF3
Experimental: as §1

[5] = system: Karpas299 (NPM-ALK) cells; experiment: Cell proliferation (CellTiter-Glo); format: cell-based
Experimental: as §1

TAOK2 = TAOK2 (Homo sapiens, UniProt Q9UL54); experiment: Z'-LYTE kinase selectivity; format: biochemical
MAPKAPK2 = MAPKAPK2 (Homo sapiens, UniProt P49137); experiment: Z'-LYTE kinase selectivity; format: biochemical
MAPKAPK2, sequence (P49137 whole entry): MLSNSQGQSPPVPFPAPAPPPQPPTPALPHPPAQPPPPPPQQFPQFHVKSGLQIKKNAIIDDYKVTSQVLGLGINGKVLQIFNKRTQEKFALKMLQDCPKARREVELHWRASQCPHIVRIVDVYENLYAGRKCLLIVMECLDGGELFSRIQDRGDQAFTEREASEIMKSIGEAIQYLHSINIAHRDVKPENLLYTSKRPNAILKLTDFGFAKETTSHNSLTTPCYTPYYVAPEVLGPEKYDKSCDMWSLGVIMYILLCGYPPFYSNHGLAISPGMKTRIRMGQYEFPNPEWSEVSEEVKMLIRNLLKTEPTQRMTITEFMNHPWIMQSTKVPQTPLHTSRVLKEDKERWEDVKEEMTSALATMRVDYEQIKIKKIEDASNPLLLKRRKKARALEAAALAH

CDK2 = CDK2 (Homo sapiens, UniProt P24941); experiment: Z'-LYTE kinase selectivity; format: biochemical
SRC = SRC (Homo sapiens, UniProt P12931); experiment: Z'-LYTE kinase selectivity; format: biochemical
SRC, sequence (P12931 whole entry): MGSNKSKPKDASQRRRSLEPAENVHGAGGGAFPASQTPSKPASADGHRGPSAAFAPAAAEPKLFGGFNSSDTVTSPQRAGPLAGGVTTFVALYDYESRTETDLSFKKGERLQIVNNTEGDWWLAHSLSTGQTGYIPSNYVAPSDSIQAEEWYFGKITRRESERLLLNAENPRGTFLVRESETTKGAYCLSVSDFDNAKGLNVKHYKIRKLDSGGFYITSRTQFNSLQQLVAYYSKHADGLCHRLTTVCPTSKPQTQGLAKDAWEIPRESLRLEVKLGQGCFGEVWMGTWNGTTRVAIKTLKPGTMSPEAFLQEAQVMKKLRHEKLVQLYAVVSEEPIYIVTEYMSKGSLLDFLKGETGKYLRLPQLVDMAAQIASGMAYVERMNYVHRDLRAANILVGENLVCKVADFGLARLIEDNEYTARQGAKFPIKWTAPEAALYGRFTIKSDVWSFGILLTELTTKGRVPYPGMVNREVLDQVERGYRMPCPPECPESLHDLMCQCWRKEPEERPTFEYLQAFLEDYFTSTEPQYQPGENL

[6] = system: LU-01-0015 (HIP-ALK) patient derived lung-tumor xenografts; experiment: LU-01-0015 patient-derived xenograft model (tumor volume, body weight); format: in vivo, BALB/c nude mice; conditions: for Tumor volume Mean: group mean; for Tumor volume: individual mouse, in mm³
Experimental: Female BALB/c nude mice (4–6 weeks old) were provided by Shanghai Sipple-Bikai Laboratory Animal Co., Ltd. and Beijing Vital River Laboratory Animal Technology Co., Ltd. The mice were housed in a specific pathogen-free environment under a 12 h light/dark cycle, and had free access to sterile animal feed and water.
PDX and CDX models were used for in vivo studies. Patient-derived tumors tissues were divided into about 30 mm^3 and transplanted into the right dorsal subcutis. Treatment began when the tumor size reached to 200 mm^3. The mice were randomly assignied into the corresponding dosing groups (9 mice in each group). Drugs were deliverd via daily oral for 4 weeks. Tumor size was measured periodically using a digital caliper (Cal Pro, Sylvac, Switzerland), and tumor volume was calculated as 0.5 × length × width^2. For more detailed information, please refer to Supplementary materials. All procedures and protocols of xenograft models were approved by the Institutional Animal Care and Use Committee of WuXi AppTec.
Patient-derived tumor tissue was segmented into small pieces of approximately 20–30 mm^3 and transplanted subcutaneously into the right back of mice. When the tumor volume reached 150-200 mm^3, the mice were randomly divided into corresponding groups (9 mice in each group, female). Administered by gavage once daily for 4 weeks.

ABL = ABL (Homo sapiens, UniProt P00519); experiment: Z'-LYTE kinase selectivity; format: biochemical
ABL, sequence (P00519 whole entry): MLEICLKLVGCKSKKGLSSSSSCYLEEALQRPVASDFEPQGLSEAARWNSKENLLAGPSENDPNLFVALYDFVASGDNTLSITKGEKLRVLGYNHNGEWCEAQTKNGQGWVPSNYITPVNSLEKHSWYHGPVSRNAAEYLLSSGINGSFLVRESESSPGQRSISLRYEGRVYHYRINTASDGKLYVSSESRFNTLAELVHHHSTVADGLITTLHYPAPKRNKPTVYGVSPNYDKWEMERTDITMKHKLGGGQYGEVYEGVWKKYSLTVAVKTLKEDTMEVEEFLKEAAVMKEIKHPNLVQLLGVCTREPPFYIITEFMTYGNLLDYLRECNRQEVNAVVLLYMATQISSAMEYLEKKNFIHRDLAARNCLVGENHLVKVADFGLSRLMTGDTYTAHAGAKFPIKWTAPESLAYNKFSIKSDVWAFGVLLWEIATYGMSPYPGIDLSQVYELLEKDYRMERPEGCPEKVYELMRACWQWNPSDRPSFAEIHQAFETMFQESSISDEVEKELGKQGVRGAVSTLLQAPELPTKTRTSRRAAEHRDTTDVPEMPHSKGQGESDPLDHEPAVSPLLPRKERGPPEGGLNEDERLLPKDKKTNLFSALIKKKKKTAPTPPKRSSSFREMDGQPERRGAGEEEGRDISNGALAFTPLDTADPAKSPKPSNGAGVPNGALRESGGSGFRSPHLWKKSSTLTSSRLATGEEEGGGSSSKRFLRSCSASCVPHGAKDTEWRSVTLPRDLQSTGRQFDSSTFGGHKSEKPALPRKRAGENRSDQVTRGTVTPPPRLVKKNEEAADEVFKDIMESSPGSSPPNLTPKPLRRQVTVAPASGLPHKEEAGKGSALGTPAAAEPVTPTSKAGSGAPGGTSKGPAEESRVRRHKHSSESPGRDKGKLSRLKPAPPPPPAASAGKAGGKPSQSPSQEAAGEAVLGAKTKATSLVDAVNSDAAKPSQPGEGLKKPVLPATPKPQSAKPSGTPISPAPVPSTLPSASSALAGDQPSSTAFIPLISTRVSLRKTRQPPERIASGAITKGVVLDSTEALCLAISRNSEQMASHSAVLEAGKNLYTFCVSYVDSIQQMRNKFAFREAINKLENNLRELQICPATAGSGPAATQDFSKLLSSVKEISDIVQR

MINK = MINK (Homo sapiens, UniProt Q8N4C8); experiment: Z'-LYTE kinase selectivity; format: biochemical
MINK, sequence (Q8N4C8 whole entry): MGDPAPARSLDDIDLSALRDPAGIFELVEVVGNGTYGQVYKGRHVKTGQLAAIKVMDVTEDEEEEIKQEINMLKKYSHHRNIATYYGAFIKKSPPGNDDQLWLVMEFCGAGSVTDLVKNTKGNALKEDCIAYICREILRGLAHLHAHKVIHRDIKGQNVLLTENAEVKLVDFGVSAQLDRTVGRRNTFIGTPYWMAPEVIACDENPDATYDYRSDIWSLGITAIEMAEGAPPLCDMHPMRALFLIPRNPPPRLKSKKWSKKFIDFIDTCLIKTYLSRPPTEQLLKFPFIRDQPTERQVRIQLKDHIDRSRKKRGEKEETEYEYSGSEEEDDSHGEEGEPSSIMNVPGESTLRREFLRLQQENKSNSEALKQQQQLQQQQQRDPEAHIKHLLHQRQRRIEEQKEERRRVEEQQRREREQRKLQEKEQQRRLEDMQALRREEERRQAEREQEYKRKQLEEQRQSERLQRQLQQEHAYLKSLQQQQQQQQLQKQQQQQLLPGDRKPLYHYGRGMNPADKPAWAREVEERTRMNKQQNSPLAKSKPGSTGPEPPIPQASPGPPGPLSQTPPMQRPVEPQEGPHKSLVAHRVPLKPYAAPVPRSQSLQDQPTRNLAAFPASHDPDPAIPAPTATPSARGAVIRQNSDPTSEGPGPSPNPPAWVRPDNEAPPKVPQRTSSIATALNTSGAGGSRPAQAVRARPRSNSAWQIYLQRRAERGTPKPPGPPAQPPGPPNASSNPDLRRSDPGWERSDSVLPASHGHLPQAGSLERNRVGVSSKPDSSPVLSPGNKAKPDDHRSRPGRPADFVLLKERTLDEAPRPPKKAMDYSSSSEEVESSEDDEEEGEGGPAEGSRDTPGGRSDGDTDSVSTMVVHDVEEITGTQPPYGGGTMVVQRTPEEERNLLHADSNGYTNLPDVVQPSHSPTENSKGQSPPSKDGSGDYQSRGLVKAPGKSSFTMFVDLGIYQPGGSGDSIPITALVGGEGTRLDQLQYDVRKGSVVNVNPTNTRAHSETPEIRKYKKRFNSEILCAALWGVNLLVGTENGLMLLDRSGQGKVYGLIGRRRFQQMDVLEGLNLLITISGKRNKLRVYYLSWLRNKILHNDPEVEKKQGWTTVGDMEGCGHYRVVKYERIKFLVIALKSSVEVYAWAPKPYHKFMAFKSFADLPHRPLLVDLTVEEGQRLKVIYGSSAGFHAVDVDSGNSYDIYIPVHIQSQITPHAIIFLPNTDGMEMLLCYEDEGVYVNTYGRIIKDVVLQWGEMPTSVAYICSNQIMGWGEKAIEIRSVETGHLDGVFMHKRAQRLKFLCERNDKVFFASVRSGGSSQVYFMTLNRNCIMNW

EPHA2 = EPHA2 (Homo sapiens, UniProt P29317); experiment: Z'-LYTE kinase selectivity; format: biochemical
LCK = LCK (Homo sapiens, UniProt P06239); experiment: Z'-LYTE kinase selectivity; format: biochemical
MST4 = MST4 (Homo sapiens, UniProt Q9P289); experiment: Z'-LYTE kinase selectivity; format: biochemical
MST4, sequence (Q9P289 whole entry): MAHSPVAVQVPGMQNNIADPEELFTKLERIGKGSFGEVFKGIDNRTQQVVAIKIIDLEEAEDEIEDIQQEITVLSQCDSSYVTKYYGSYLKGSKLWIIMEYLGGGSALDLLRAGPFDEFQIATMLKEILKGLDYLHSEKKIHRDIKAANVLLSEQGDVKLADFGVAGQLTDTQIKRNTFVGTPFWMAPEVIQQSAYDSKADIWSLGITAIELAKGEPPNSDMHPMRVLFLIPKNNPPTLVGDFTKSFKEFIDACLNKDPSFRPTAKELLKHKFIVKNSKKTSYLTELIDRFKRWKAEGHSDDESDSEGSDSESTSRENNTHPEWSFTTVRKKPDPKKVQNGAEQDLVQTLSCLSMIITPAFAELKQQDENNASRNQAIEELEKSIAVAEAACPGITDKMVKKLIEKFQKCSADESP

P38 alpha = P38 alpha (Homo sapiens, UniProt Q16539); experiment: Z'-LYTE kinase selectivity; format: biochemical
P38 alpha, sequence (Q16539 whole entry): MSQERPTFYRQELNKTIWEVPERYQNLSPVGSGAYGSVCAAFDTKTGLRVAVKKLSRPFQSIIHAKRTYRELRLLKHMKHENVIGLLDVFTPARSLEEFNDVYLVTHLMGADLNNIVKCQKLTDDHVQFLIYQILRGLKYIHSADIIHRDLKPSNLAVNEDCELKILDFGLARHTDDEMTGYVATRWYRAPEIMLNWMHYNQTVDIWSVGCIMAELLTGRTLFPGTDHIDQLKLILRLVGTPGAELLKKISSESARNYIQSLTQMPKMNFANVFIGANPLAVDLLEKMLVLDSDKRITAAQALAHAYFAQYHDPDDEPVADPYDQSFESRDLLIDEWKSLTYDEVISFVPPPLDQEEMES

CaMK2 alpha = CaMK2 alpha (Homo sapiens, UniProt Q9UQM7); experiment: Z'-LYTE kinase selectivity; format: biochemical
CaMK2 alpha, sequence (Q9UQM7 whole entry): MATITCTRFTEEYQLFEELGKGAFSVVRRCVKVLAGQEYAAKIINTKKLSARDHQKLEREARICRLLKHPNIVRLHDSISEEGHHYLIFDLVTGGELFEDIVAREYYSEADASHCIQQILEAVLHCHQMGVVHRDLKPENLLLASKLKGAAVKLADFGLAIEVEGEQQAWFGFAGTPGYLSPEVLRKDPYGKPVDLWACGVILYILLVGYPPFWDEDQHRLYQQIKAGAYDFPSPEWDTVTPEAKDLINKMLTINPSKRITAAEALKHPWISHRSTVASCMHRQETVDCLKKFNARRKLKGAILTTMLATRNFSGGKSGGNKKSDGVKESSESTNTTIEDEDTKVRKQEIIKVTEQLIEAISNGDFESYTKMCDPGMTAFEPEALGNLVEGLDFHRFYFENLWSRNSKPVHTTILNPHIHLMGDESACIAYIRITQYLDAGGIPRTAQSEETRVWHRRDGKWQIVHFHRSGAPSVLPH

PKA = PKA (Homo sapiens, UniProt P17612); experiment: Z'-LYTE kinase selectivity; format: biochemical
[7] = 5 mg/kg PO QD×4 W, day 0 after administration
[8] = 5 mg/kg PO QD×4 W, day 3 after administration
[9] = 5 mg/kg PO QD×4 W, day 7 after administration
[10] = 5 mg/kg PO QD×4 W, day 10 after administration
[11] = 5 mg/kg PO QD×4 W, day 14 after administration
[12] = 5 mg/kg PO QD×4 W, day 17 after administration
[13] = 5 mg/kg PO QD×4 W, day 21 after administration
[14] = 5 mg/kg PO QD×4 W, day 24 after administration
[15] = 5 mg/kg PO QD×4 W, day 27 after administration
[16] = 10 mg/kg (D0-D7)/2.5 mg/kg PO QD×4 W, day 0 after administration
[17] = 10 mg/kg (D0-D7)/2.5 mg/kg PO QD×4 W, day 3 after administration
[18] = 10 mg/kg (D0-D7)/2.5 mg/kg PO QD×4 W, day 7 after administration
[19] = 10 mg/kg (D0-D7)/2.5 mg/kg PO QD×4 W, day 10 after administration
[20] = 10 mg/kg (D0-D7)/2.5 mg/kg PO QD×4 W, day 14 after administration
[21] = 10 mg/kg (D0-D7)/2.5 mg/kg PO QD×4 W, day 17 after administration
[22] = 10 mg/kg (D0-D7)/2.5 mg/kg PO QD×4 W, day 21 after administration
[23] = 10 mg/kg (D0-D7)/2.5 mg/kg PO QD×4 W, day 24 after administration
[24] = 10 mg/kg (D0-D7)/2.5 mg/kg PO QD×4 W, day 27 after administration
[25] = 15 mg/kg PO QD×4 W, day 0 after administration
[26] = 15 mg/kg PO QD×4 W, day 3 after administration
[27] = 15 mg/kg PO QD×4 W, day 7 after administration
[28] = 15 mg/kg PO QD×4 W, day 10 after administration
[29] = 15 mg/kg PO QD×4 W, day 14 after administration
[30] = 15 mg/kg PO QD×4 W, day 17 after administration
[31] = 15 mg/kg PO QD×4 W, day 21 after administration
[32] = 15 mg/kg PO QD×4 W, day 24 after administration
[33] = 15 mg/kg PO QD×4 W, day 27 after administration

SMILES: COc1cc(N2CCC3(CCN(C)CC3)CC2)ccc1Nc1ncc(Cl)c(Nc2ccccc2P(C)(C)=O)n1 [Iruplinalkib]
- IC50 (MAP4K4): 1840 ± 679 nM
- IC50 (JAK2): 595 ± 12 nM
- IC50 [1]: 342 nM
- IC50 [2]: 508 ± 96 nM
- IC50 [3]: 228 nM
- IC50 (Ba/F3 cells): 2210 ± 94 nM
- IC50 [4]: 4.05 nM
- IC50 [5]: 4.5 ± 0.7 nM
- IC50 (TAOK2): 1500 ± 442 nM
- IC50 (MAPKAPK2): > 10000 nM
- IC50 (CDK2): 1560 ± 1130 nM
- IC50 (SRC): 1680 ± 872 nM
- Tumor volume Mean [6, 7]: 149 mm³
- Tumor volume [6, 7]: 165
- Tumor volume Mean [6, 8]: 127 mm³
- Tumor volume [6, 8]: 165
- Tumor volume Mean [6, 9]: 82 mm³
- Tumor volume [6, 9]: 96
- Tumor volume Mean [6, 10]: 79 mm³
- Tumor volume [6, 10]: 80
- Tumor volume Mean [6, 11]: 70 mm³
- Tumor volume [6, 11]: 75
- Tumor volume Mean [6, 12]: 81 mm³
- Tumor volume [6, 12]: 96
- Tumor volume Mean [6, 13]: 89 mm³
- Tumor volume [6, 13]: 121
- Tumor volume Mean [6, 14]: 85 mm³
- Tumor volume [6, 14]: 118
- Tumor volume Mean [6, 15]: 94 mm³
- Tumor volume [6, 15]: 104
- Tumor volume Mean [6, 16]: 150 mm³
- Tumor volume [6, 16]: 136 and 117
- Tumor volume Mean [6, 17]: 124 mm³
- Tumor volume [6, 17]: 115 and 76
- Tumor volume Mean [6, 18]: 77 mm³
- Tumor volume [6, 18]: 71 and 51
- Tumor volume Mean [6, 19]: 60 mm³
- Tumor volume [6, 19]: 49 and 43
- Tumor volume Mean [6, 20]: 63 mm³
- Tumor volume [6, 20]: 48
- Tumor volume Mean [6, 21]: 77 mm³
- Tumor volume [6, 21]: 58
- Tumor volume Mean [6, 22]: 107 mm³
- Tumor volume [6, 22]: 56
- Tumor volume Mean [6, 23]: 106 mm³
- Tumor volume [6, 23]: 57
- Tumor volume Mean [6, 24]: 127 mm³
- Tumor volume [6, 24]: 65 and 99
- Tumor volume Mean [6, 25]: 149 mm³
- Tumor volume [6, 25]: 101 and 162 and 129 and 99 and 217 and 147 and 109 and 207 and 174
- Tumor volume Mean [6, 26]: 115 mm³
- Tumor volume [6, 26]: 81 and 117 and 84 and 63 and 150 and 118 and 79 and 154 and 190
- Tumor volume Mean [6, 27]: 66 mm³
- Tumor volume [6, 27]: 51 and 61 and 57 and 56 and 78 and 72 and 52 and 71 and 98
- Tumor volume Mean [6, 28]: 54 mm³
- Tumor volume [6, 28]: 48 and 61 and 44 and 35 and 63 and 79 and 45
- Tumor volume Mean [6, 29]: 49 mm³
- Tumor volume [6, 29]: 41 and 57 and 43 and 31 and 72 and 46 and 44 and 60
- Tumor volume Mean [6, 30]: 51 mm³
- Tumor volume [6, 30]: 44 and 92 and 41 and 24 and 68 and 47 and 32 and 42
- Tumor volume Mean [6, 31]: 49 mm³
- Tumor volume [6, 31]: 35 and 87 and 45 and 30 and 53 and 59 and 37 and 41 and 57
- Tumor volume Mean [6, 32]: 43 mm³
- Tumor volume [6, 32]: 29 and 56 and 37 and 23 and 45 and 53 and 34 and 22 and 91
- Tumor volume Mean [6, 33]: 49 mm³
- Tumor volume [6, 33]: 30 and 67 and 38 and 27 and 62 and 54 and 44 and 42 and 78
- tumor growth inhibition ([6]; LU-01-0015 and NCI-H3122 xenograft models, all P < 0.05): able to inhibit tumor growth
- tumor inhibition effect compared with brigatinib ([6]; crizotinib-resistant model): significantly better than that of brigatinib
- effect on body weight ([6]; nude mouse xenograft models (LU-01-0015, NCI-H3122), all P ≥ 0.05): no effect
- IC50 (ABL): 576 ± 108 nM
- IC50 (MINK): 3890 ± 1060 nM
- IC50 (EPHA2): > 10000 nM
- IC50 (LCK): 825 ± 243 nM
- IC50 (MST4): 1400 ± 251 nM
- IC50 (P38 alpha): > 10000 nM
- IC50 (CaMK2 alpha): 939 ± 99 nM
- IC50 (PKA): > 10000 nM
